According to US20060276436A1, “Farnesyl dibenzodiazepinone formulation” (Ecopia BioSciences, Inc., priority 2005, published 2006):
Values joined by “and” are separate entries in the source; they are usually repeats but may differ in a detail not shown here. Equal entries are not always repeated. Where two headings read alike, the source gives them in different places. Marks after values point to notes of the source that are not given here.

How the values were obtained:
[1] = tested on: human prostate tumor (PC3) xenografts; test: Human PC3 prostate cancer mice model; type: in vivo, HRLN male nude mice; details: Intravenous treatment, 100 mg/kg 5/2/5/2/5
Method: The anticancer activity of Compound 1 was tested in a human PC3 prostate model in mice, using formulation D11; at 6, 9 and 10 mg/mL concentrations (see Table 7). HRLN male nude mice (8 weeks of age) were implanted with 1 mm^3 PC3 tumor fragments subcutaneously (sc) in the right flank. Animals were randomized (ten per group) when tumors reach an average size of 80-120 mg and treatment began according to the table below.
Tumor measurements were taken twice weekly using callipers and were converted to tumor mass (in milligrams) using the formula: with^2 (mm)×length (mm)×0.52. Body weights were also recorded twice weekly. Statistical analysis was done using the unpaired two-tailed Student's t test.

[2] = Population pharmacokinetic analysis (NONMEM), monkey; type: in vivo; details: cynomolgus, plasma, iv, Monkey (CIV); for half-life: monkey; for Vd: read-out: Vss
Excerpt: (§1) Plasma concentrations of Compound 1 were obtained from mice, rats, and monkeys following intravenous injection or continuous infusion. Compound 1 pharmacokinetic parameters in mice, rats, and monkeys were estimated using population pharmacokinetic analysis, a function of the software program NONMEM™ (version 5). Typical population pharmacokinetic parameters for Compound 1 in humans were extrapolated from allometric equations that were derived from pharmacokinetic parameters estimated in the three animal species. […] A two-compartment model with a first-order elimination from the central compartment adequately described Compound 1 plasma concentration-time profiles following intravenous bolus injection (30 mg/kg) in mice and rats, 7-day continuous infusion in rats (50 to 170 mg/kg/day), and 14-day continuous infusion in monkeys (5 to 30 mg/kg/day).

[3] = Population pharmacokinetic analysis (NONMEM), rat; type: in vivo; details: plasma, Rat (IV + CIV); for Vd: read-out: Vss; for half-life: rat, iv
Excerpt: as §1

[4] = Pharmacokinetics of Formulation D11 given CIV for 14 days in monkeys; type: in vivo, Cynomolgus monkeys; details: for Css / T1/2z / Vd / AUC / clearance: 14-day CIV, Mean (SD); for Css: average between 30 h and 14 days; for T1/2z: end of treatment; for Vd / AUC / clearance: iv
Method: Cynomolgus monkeys received continuous IV infusion over 14 days of Compound 1 at 5 mg/kg/day, 15 mg/kg/day, or 30 mg/kg/day. The drug was infused intravenously (24 hours/day) into the femoral vein at a dose rate of 2 ml/kg/hour for 14 consecutive days. Blood samples were removed from each monkey on Days 1, 2, 6, 10, and 15 of the treatment period. Monkeys were bled by venipuncture and samples were collected into tubes containing K2EDTA. On Day 1, samples were collected at 2, 6, and 12 hours after initiation of treatment. Additional samples were collected at 30 hours after the start of infusion (Day 2). On Days 6 and 10, samples were collected at approximately 6 hours after the bag changes. At the end of the 14 days of infusion, on Day 15, samples were collected at 1 hour prior to cessation of dose administration, and at 5 min, 30 min, 1 h, 2 h, 4 h, 8 h, and 24 h following cessation of dose administration.

[5] = Population pharmacokinetic analysis (NONMEM), mouse; type: in vivo; details: 30 mg/kg; for half-life: CD1, mouse, plasma, iv; for clearance / Vd: CD1, plasma, Mouse (IV); for Vd: read-out: Vss
Excerpt: as §1

[6] = In vivo toxicity of Compound 1 in monkeys
[7] = Pharmacokinetics of Formulation D11 given CIV for 14 days in rats; type: in vivo; details: both sexes, Sprague-Dawley, rat, plasma; for concentration at 2 h: read-out: mean plasma concentration 2 hours after the end of infusion; for Vd / AUC / clearance: iv, 14-day CIV
Method: Sprague-Dawley rats received an intravenous continuous infusion over 14 days of Compound 1 at 25 mg/kg/day, 50 mg/kg/day, or 75 mg/kg/day at a rate of 2 mL/kg/h for 14 consecutive days (Formulation D11). Blood was collected from the jugular vein in tubes containing K2 EDTA from 3 rats/sex/group at the following time points: 2, 6, and 12 hours after the start of dosing on Day 1, on Day 2 at 6 hours (approximately 30 hours after the start of dosing), on Days 6 and 10 at 6 hours, and on Day 15, 1 hour prior the end of dosing, and then at 5 min, 15 min, 30 min, 1 h, and 2 h after the end of dosing.

[8] = tested on: human breast tumor (MDA-MB-231) xenografts; test: Human MDA-MB-231 breast cancer mice model; type: in vivo, HRLN female nude mice; details: Intravenous treatment, 100 mg/kg 5/2/5/2/5
Method: The antitumor activity of Compound 1 was further tested in a human MD-MB-231 breast cancer model in mice, using formulation D11 at 6 and 10 mg/mL concentrations (see Table 8). HRLN female nude mice (8 weeks of age) were treated with 5×10^6 MDA-MB-231 tumor cells (sc) in the right flank. Animals were randomized (ten per group) when tumors reach an average size of 80-120 mg and treatment began according to the table below.
Tumor measurements were taken twice weekly using calipers and were converted to tumor mass (in milligrams) using the formula: with^2 (mm)×length (mm)×0.52. Body weights were also recorded twice weekly. Statistical analysis was done using the unpaired two-tailed Student's t test.

[9] = population PK, read-out: t1/2, α (converted)
[10] = population PK, read-out: t1/2, β (converted)
[11] = cynomolgus monkey, plasma, intravenous, CIV, 30 mg/kg/day
[12] = cynomolgus monkey, plasma, 5 mg/kg/day
[13] = cynomolgus monkey, plasma, 15 mg/kg/day

## CC(C)=CCC/C(C)=C/CC/C(C)=C/CN1C(=O)c2cccc(O)c2Nc2c(O)cc(O)cc21 [Compound 1, 10-farnesyl-4,6,8-trihydroxy-dibenzodiazepin-11-one]
[1]
  antitumor activity (in words): did not result in activity
[2]; [9]
  half-life: 0.308 h
[2]; [10]
  half-life: 8.05 h
[2]; WT 3.8 Kg
  clearance: 28 mL/min
  Vd: 2.36 L
[2]; population PK
  clearance: 7.35 mL/min/kg
  Vd: 0.622 L/kg
[3]; WT 0.225 Kg
  clearance: 4.08 mL/min
  Vd: 0.081 L
[3]; population PK
  clearance: 18.2 mL/min/kg
  Vd: 0.362 L/kg
[3]; [9]
  half-life: 0.075 h
[3]; [10]
  half-life: 2.5 h
[4]; 15 mg/kg/day versus 5 mg/kg/day
  AUC increase between groups: 3.4 fold
[4]; 30 mg/kg/day versus 15 mg/kg/day
  AUC increase between groups: 4.7 fold
[4]; 5 mg/kg/day
  Css: 358^b (85)^ ng/mL
  T1/2z: 12 (3) h
[4]; 15 mg/kg/day
  Css: 1,173 (340) ng/mL
  T1/2z: 8.3 (2.2) h
[4]; 30 mg/kg/day
  Css: 6,283 (3,650) ng/mL
  T1/2z: 8.1 (1.0) h
[4]; [11]
  concentration at 1 day: 2810 ng/mL and ~6.1 µM
  concentration at 6 day: 4350 ng/mL and ~9.4 µM
  concentration at 10 day: ~15 µM and 6860 ng/mL
  concentration at 15 day: 8560 ng/mL and ~18.5 µM
[4]; cynomolgus monkey, plasma, 5 mg/kg/day, 5 mg/kg/day, read-out: Vss
  Vd: 7.1 L/kg
[4]; cynomolgus monkey, plasma, 5 mg/kg/day, 5 mg/kg/day, read-out: Vz
  Vd: 10 L/kg
[4]; cynomolgus monkey, plasma, 15 mg/kg/day, 15 mg/kg/day, read-out: Vss
  Vd: 3.6 L/kg
[4]; [12]
  AUC: 119 µg·h/mL
  clearance: 10.2 mL/min/kg
[4]; [13]
  AUC: 400 µg·h/mL
  clearance: 9.33 mL/min/kg
[4]; cynomolgus monkey, plasma, 30 mg/kg/day
  AUC: 1870 µg·h/mL
[4]; cynomolgus, cynomolgus monkey, plasma, 15 mg/kg/day, 15 mg/kg/day, read-out: Vz
  Vd: 6.8 L/kg
[4]; cynomolgus, cynomolgus monkey, plasma, 30 mg/kg/day, 30 mg/kg/day, read-out: Vss
  Vd: 10.7 L/kg
[4]; cynomolgus, cynomolgus monkey, plasma, 30 mg/kg/day, 30 mg/kg/day, read-out: Vz
  Vd: 3.2 L/kg
[4]; cynomolgus, cynomolgus monkey, plasma, 30 mg/kg/day
  clearance: 4.5 mL/min/kg
[5]; [9]
  half-life: 0.078 h
[5]; [10]
  half-life: 2.49 h
[5]; WT 0.022 Kg
  clearance: 0.533 mL/min
  Vd: 0.009 L
[5]; population PK
  clearance: 24.8 mL/min/kg
  Vd: 0.401 L/kg
[6]; 24-hour CIV, doses of 35 mg/kg and 70 mg/kg, infusion rate 2 mL/kg/hour
  acute toxicity, tolerability: well tolerated
[6]; monkey, in vivo, single bolus intravenous administration
  MTD: ~35 mg/kg
[7]; intravenous, 25 mg/kg/day
  concentration at 2 h: 28 ng/mL
[7]; intravenous, 50 mg/kg/day
  concentration at 2 h: 53 ng/mL
[7]; intravenous, 75 mg/kg/day
  concentration at 2 h: 75 ng/mL
[7]; intravenous, CIV, 50 mg/kg/day
  concentration at 10 day: 1750 ng/mL and ~3.8 µM
[7]; 25 mg/kg/day, 25 mg/kg/day, read-out: Vss
  Vd: 15.8 L/kg
[7]; 25 mg/kg/day, 25 mg/kg/day, read-out: Vz
  Vd: 6.8 L/kg
[7]; 50 mg/kg/day, 50 mg/kg/day, read-out: Vss
  Vd: 38.8 L/kg
[7]; 50 mg/kg/day, 50 mg/kg/day, read-out: Vz
  Vd: 3.1 L/kg
[7]; 75 mg/kg/day, 75 mg/kg/day, read-out: Vss
  Vd: 15.4 L/kg
[7]; 75 mg/kg/day, 75 mg/kg/day, read-out: Vz
  Vd: 3.1 L/kg
[7]; 25 mg/kg/day
  AUC: 116 µg·h/mL
  clearance: 50 mL/min/kg
[7]; 50 mg/kg/day
  AUC: 396 µg·h/mL
  clearance: 30 mL/min/kg
[7]; 75 mg/kg/day
  AUC: 597 µg·h/mL
  clearance: 30 mL/min/kg
[8]
  antitumor activity (in words): did not result in activity
